# Patent US10669261B2, “Heteroarylhydroxypyrimidinones as agonists of the APJ receptor” (BRISTOL-MYERS SQUIBB COMPANY, priority 2015, dated 2020)
# Molecular target: T1, human APJ receptor (Homo sapiens, UniProt P35414)
# T1 construct: expressed in transfected cells
# T1 sequence (P35414 1-380): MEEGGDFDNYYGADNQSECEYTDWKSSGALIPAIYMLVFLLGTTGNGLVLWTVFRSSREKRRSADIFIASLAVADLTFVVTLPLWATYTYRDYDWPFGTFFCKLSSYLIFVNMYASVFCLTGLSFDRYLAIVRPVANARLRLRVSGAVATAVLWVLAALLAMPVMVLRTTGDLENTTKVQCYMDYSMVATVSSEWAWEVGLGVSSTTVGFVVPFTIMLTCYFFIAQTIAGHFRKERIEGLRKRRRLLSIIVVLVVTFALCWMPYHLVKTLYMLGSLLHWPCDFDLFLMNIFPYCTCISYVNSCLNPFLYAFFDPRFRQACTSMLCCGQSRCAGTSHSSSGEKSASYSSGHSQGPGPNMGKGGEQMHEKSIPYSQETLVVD
# Assay: Intracellular cAMP accumulation assay (APJ hcAMP, HTRF)
# Assay type: cell-based
# Conditions: HEK293 cells stably expressing human APJ receptor; inhibition of forskolin-mediated cAMP production; stated at end of example; read-out: Human APJ cAMP Potency Range
# Procedure: Intracellular cAMP Accumulation Assay
# HEK293 cells stably expressing human APJ receptor were used to assess the activity of compounds. Cultured cells were detached and resuspended in the cAMP Homogeneous Time-Resolved Fluorescence (HTRF) assay buffer (Cisbio cat; #62AM4PEJ). The assay was performed in 384-well assay plates (Perkin-Elmer; cat #6008289) according to assay protocol provided by the manufacturer. Serial dilutions of a compound together with assay buffer containing […] IBMX and 2 μM forskolin were added to each well containing 5,000 cells and incubated for 30 minutes at room temperature. Subsequently, cAMP D2 reagent was added in the lysis buffer followed by the EuK antibody (Cisbio; cat #62AM4PEJ) and incubated for 60 min. The fluorescence emission ratio was measured using fluorometer. The intracellular cAMP concentrations (compound-stimulated inhibition of forskolin-mediated cAMP production) were calculated by extrapolation from a standard curve using known cAMP concentrations. The EC50 values were obtained by fitting the data to a sigmoidal concentration-response curve with variable slope. The maximal achievable inhibition of forskolin-induced cAMP levels (Ymax) for each compound was expressed as relative percentage of inhibition attained using pyroglutamated apelin-13 ((Pyr1)apelin-13) peptide, which was set to 100%.
# The examples disclosed below were tested in the APJ in vitro assays described above and were found having human APJ cyclic AMP (hcAMP) activity. The EC50 value of each compound is presented at the end of the example description.
# The biological activity of the exemplified compounds of this invention determined by the assay described above is shown at the end of each example.
row,EC50 [nM],Compound
1,10 to 100,"CCCCc1nc(=O)c(-c2nnc(Cc3noc4ccccc34)o2)c(O)n1-c1c(C#N)cccc1C#N [Example 28, 2-(5-(5-(Benzo[d]isoxazol-3-ylmethyl)-1,3,4-oxadiazol-2-yl)-2-butyl-6-hydroxy-4-oxopyrimidin-1 (4H)-yl)isophthalonitrile]"

# Same assay, conditions: Table 1; HEK293 cells stably expressing human APJ receptor; read-out: hAPJ cAMP EC50 Potency range
row,EC50 [nM],Compound
1,0.01 to 10,"COc1cccc(OC)c1-n1c(CCC2CC2)nc(=O)c(-c2nnc(CNC(=O)c3cccc(Cl)c3)o2)c1O [Example 55, 3-chloro-N-({5-[2-(2-cyclopropylethyl)-1-(2,6-dimethoxyphenyl)-6-hydroxy-4-oxo-1,4-dihydropyrimidin-5-yl]-1,3,4-oxadiazol-2-yl}methyl)benzamide]"
2,0.01 to 10,"COc1cccc(OC)c1-n1c(COC(C)C)nc(=O)c(-c2nnc(Cc3ccc(Cl)cc3)o2)c1O [Example 36, 5-{5-[(4-chlorophenyl)methyl]-1,3,4-oxadiazol-2-yl}-1-(2,6-dimethoxyphenyl)-6-hydroxy-2-[(propan-2-yloxy)methyl]-1,4-dihydropyrimidin-4-one]"
3,0.01 to 10,"COc1cccc(OC)c1-n1c(CCC2CC2)nc(=O)c(-c2nnc(CNC(=O)c3cccnc3)o2)c1O [Example 56, N-({5-[2-(2-cyclopropylethyl)-1-(2,6-dimethoxyphenyl)-6-hydroxy-4-oxo-1,4-dihydropyrimidin-5-yl]-1,3,4-oxadiazol-2-yl}methyl)pyridine-3-carboxamide]"
4,0.01 to 10,"C=CCCc1nc(=O)c(-c2nnc(Cc3noc4ccccc34)o2)c(O)n1-c1c(C)cccc1OC [Example 17, 5-[5-(1,2-benzoxazol-3-ylmethyl)-1,3,4-oxadiazol-2-yl]-2-(but-3-en-1-yl)-6-hydroxy-1-(2-methoxy-6-methylphenyl)-1,4-dihydropyrimidin-4-one]"
5,0.01 to 10,"COc1cccc(OC)c1-n1c(CC2CC2)nc(=O)c(-c2nnc(Cc3ccc(Cl)cc3)o2)c1O [Example 21, 5-{5-[(4-chlorophenyl)methyl]-1,3,4-oxadiazol-2-yl}-2-(cyclopropylmethyl)-1-(2,6-dimethoxyphenyl)-6-hydroxy-1,4-dihydropyrimidin-4-one]"

# Further lines, the compound ahead of its results:
row,Compound,EC50 [nM]
1,"COc1cccc(OC)c1-n1c(C2CCC2)nc(=O)c(-c2nnc(Cc3ccc(Cl)cn3)o2)c1O [Example 70, 5-{5-[(5-chloropyridin-2-yl)methyl]-1,3,4-oxadiazol-2-yl}-2-cyclobutyl-1-(2,6-dimethoxyphenyl)-6-hydroxy-1,4-dihydropyrimidin-4-one]",0.01 to 10
2,"C=CCCc1nc(=O)c(-c2nnc(Cc3ccc(Cl)cc3)o2)c(O)n1-c1c(OC)cccc1OC [Example 14, 2-(but-3-en-1-yl)-5-{5-[(4-chlorophenyl)methyl]-1,3,4-oxadiazol-2-yl}-1-(2,6-dimethoxyphenyl)-6-hydroxy-1,4-dihydropyrimidin-4-one]",0.01 to 10
3,"CCCCc1nc(=O)c(-c2nnc(CN3CCCC3=O)o2)c(O)n1-c1c(OC)cccc1OC [Example 8, 2-butyl-1-(2,6-dimethoxyphenyl)-6-hydroxy-5-{5-[(2-oxopyrrolidin-1-yl)methyl]-1,3,4-oxadiazol-2-yl}-1,4-dihydropyrimidin-4-one]",0.01 to 10
4,"COc1cccc(OC)c1-n1c(CCCC(F)(F)F)nc(=O)c(-c2nnc(Cc3noc4ccccc34)o2)c1O [Example 12, 5-[5-(1,2-benzoxazol-3-ylmethyl)-1,3,4-oxadiazol-2-yl]-1-(2,6-dimethoxyphenyl)-6-hydroxy-2-(4,4,4-trifluorobutyl)-1,4-dihydropyrimidin-4-one]",0.01 to 10
5,"COc1cccc(OC)c1-n1c(CC2CC2)nc(=O)c(-c2nnc(Cc3nc(-c4ccccn4)no3)o2)c1O [Example 22, 2-(cyclopropylmethyl)-1-(2,6-dimethoxyphenyl)-6-hydroxy-5-(5-{[3-(pyridin-2-yl)-1,2,4-oxadiazol-5-yl]methyl}-1,3,4-oxadiazol-2-yl)-1,4-dihydropyrimidin-4-one]",0.01 to 10
6,"CCCCc1nc(=O)c(-c2nnc(Cc3csc(C)n3)o2)c(O)n1-c1c(OC)cccc1OC [Example 5, 2-butyl-1-(2,6-dimethoxyphenyl)-6-hydroxy-5-{5-[(2-methyl-1,3-thiazol-4-yl)methyl]-1,3,4-oxadiazol-2-yl}-1,4-dihydropyrimidin-4-one]",0.01 to 10
7,"CCCCc1nc(=O)c(-c2nnc(Cc3noc4ccccc34)o2)c(O)n1-c1c(OC(C)C)cccc1OC(C)C [Example 24, 5-[5-(1,2-benzoxazol-3-ylmethyl)-1,3,4-oxadiazol-2-yl]-1-[2,6-bis(propan-2-yloxy)phenyl]-2-butyl-6-hydroxy-1,4-dihydropyrimidin-4-one]",100 to 300
8,"COc1cccc(OC)c1-n1c(CCC2CC2)nc(=O)c(-c2nnc(Cc3ccc(Cl)cn3)o2)c1O [Example 59, 5-{5-[(5-chloropyridin-2-yl)methyl]-1,3,4-oxadiazol-2-yl}-2-(2-cyclopropylethyl)-1-(2,6-dimethoxyphenyl)-6-hydroxy-1,4-dihydropyrimidin-4-one]",0.01 to 10

# Same assay, conditions: Table 2; HEK293 cells stably expressing human APJ receptor; read-out: hAPJ cAMP EC50 Potency range
row,EC50 [nM],Compound
1,0.01 to 10,"CCCCc1nc(O)c(-c2nnc(Cc3ccc(Cl)cn3)o2)c(=O)n1[C@@H](C)c1cccc(C#N)c1 [Example 108, 3-[(1S)-1-(2-butyl-5-{5-[(5-chloropyridin-2-yl)methyl]-1,3,4-oxadiazol-2-yl}-4-hydroxy-6-oxo-1,6-dihydropyrimidin-1-yl)ethyl]benzonitrile]"
2,0.01 to 10,"CCCCc1nc(O)c(-c2nnc(Cc3ccc(Cl)cn3)o2)c(=O)n1C(C)c1ccncc1 (stereo not drawn) [Example 109, 2-butyl-5-{5-[(5-chloropyridin-2-yl)methyl]-1,3,4-oxadiazol-2-yl}-6-hydroxy-3-[1-(pyridin-4-yl)ethyl]-3,4-dihydropyrimidin-4-one]"
3,0.01 to 10,"CCCCc1nc(O)c(-c2nnc(Cc3ccc(Cl)cn3)o2)c(=O)n1[C@@H](CCC)c1ccccc1 [Example 105, 2-butyl-5-{5-[(5-chloropyridin-2-yl)methyl]-1,3,4-oxadiazol-2-yl}-6-hydroxy-3-[(1S)-1-phenylbutyl]-3,4-dihydropyrimidin-4-one]"
4,10 to 100,"CCCCc1nc(O)c(-c2nnc(Cc3noc4ccccc34)o2)c(=O)n1[C@@H](C)c1ccccc1 [Example 75, 5-{5-[(1,2-benzoxazol-3-yl)methyl]-1,3,4-oxadiazol-2-yl}-2-butyl-6-hydroxy-3-[(1S)-1-phenylethyl]-3,4-dihydropyrimidin-4-one]"
5,100 to 300,"CCCCc1nc(O)c(-c2nnc(Cc3noc4ccccc34)o2)c(=O)n1[C@@H](C)c1ccc(OC)cc1 [Example 102, 5-{5-[(1,2-benzoxazol-3-yl)methyl]-1,3,4-oxadiazol-2-yl}-2-butyl-6-hydroxy-3-[(1S)-1-(4-methoxyphenyl)ethyl]-3,4-dihydropyrimidin-4-one]"

# More lines, now with the values behind:
row,Compound,EC50 [nM]
1,"CCCCc1nc(O)c(-c2nnc(Cc3noc4ccccc34)o2)c(=O)n1[C@H]1CCCc2ccccc21 [Example 92, 5-{5-[(1,2-benzoxazol-3-yl)methyl]-1,3,4-oxadiazol-2-yl}-2-butyl-6-hydroxy-3-[(1S)-1,2,3,4-tetrahydronaphthalen-1-yl]-3,4-dihydropyrimidin-4-one]",100 to 300
2,CCCCc1nc(O)c(-c2nnc(Cc3ccc(Cl)cn3)o2)c(=O)n1[C@H](COC)c1ccccc1 [Example 99],10 to 100
3,"CCCCc1nc(O)c(-c2nnc(Cc3ccc(Cl)cn3)o2)c(=O)n1[C@@H](C)c1cccc(OC)c1 [Example 116, 2-butyl-5-{5-[(5-chloropyridin-2-yl)methyl]-1,3,4-oxadiazol-2-yl}-6-hydroxy-3-[(1S)-1-(3-methoxyphenyl)ethyl]-3,4-dihydropyrimidin-4-one]",0.01 to 10
4,"CCCCc1nc(O)c(-c2nnc(Cc3noc4ccccc34)o2)c(=O)n1[C@H](COC)c1ccccc1 [Example 90, 5-{5-[(1,2-benzoxazol-3-yl)methyl]-1,3,4-oxadiazol-2-yl}-2-butyl-6-hydroxy-3-[(1S)-2-methoxy-1-phenylethyl]-3,4-dihydropyrimidin-4-one]",100 to 300
5,"CCCCc1nc(O)c(-c2nnc(Cc3ccc(Cl)cn3)o2)c(=O)n1[C@@H](C)c1ccc(F)cc1 [Example 98, 2-butyl-5-{5-[(5-chloropyridin-2-yl)methyl]-1,3,4-oxadiazol-2-yl}-3-[(1S)-1-(4-fluorophenyl)ethyl]-6-hydroxy-3,4-dihydropyrimidin-4-one]",0.01 to 10
